Source: PubChem BioAssay AID2060614 (Molecular Pharmacology Branch, DTP, NCI, 2025)

Test system: 598228-144-R-J1-PDC complex spheroids, viability
Test: Anticancer human tumor 598228-144-R-J1-PDC patient-derived serous endometrial adenocarcinoma cell line growth inhibition [CLK]
Details: for IC50: curve of first compound; for viability, T/C: stronger effect = lower value
Text: A high-throughput screen of multi-cell type tumor spheroids was designed to identify active combinations of […] and targeted small molecules. Complex spheroids include a stromal component modeled by human endothelial cells (HUVEC) and fibroblasts modeled by human mesenchymal stem cells (MSCs). The concentration ranges selected for each drug and investigational agent were based upon clinically achievable concentrations if the clinical Cmax of the agent was known.
Compounds. The drugs and investigational agents: cirtuvivint (SM08502; NSC835563), CC-671 (NSC850746), vemurafenib (NSC761431), tapotoclax (NSC804041), sotorasib (NSC818433), adagrasib (NSC831453), MRTX-1133 (NSC836407), BAY2416964 (NSC825713), copanlisib (NSC816437), inavolisib (NSC800729), abemaciclib (NSC768073), osimertinib (NSC779217), entinostat (NSC756642), eltanexor (KPT-8602, NSC794443), venetoclax (NSC766270), ceralasertib (NSC777638), bortezomib (NSC756655), olaparib (NSC753686), talazoparib (NSC767125), alisertib (NSC759677), peposertib (NSC802822), gemcitabine (NSC613327), 5-fluorouracil (NSC19893), SN-38 (NSC673596), oxaliplatin (NSC266046), paclitaxel (NSC125973), and doxorubicin (NSC123127), were obtained from the National Cancer Institute (NCI) Developmental Therapeutics Program Chemical Repository. The FDA-approved anticancer drug set is available from the Developmental Therapeutics Program at https://dtp.cancer.gov/organization/dscb/obtaining/available plates.htm. […] The stock solutions were prepared in dimethyl sulfoxide (DMSO, Sigma-Aldrich, St. Louis, MO, cat. D2650), except for the platinum complexes which were prepared in saline (Quality Biological, Gaithersburg, MD, cat. 114-055-101), at 800-fold the tested concentration and stored at -70 degrees C prior to their use. All drugs and investigational agents were tested over a range starting from a high concentration at or near the clinical Cmax and decreasing in half-log increments. If the clinical Cmax for an agent had not been determined, the highest concentration tested was 10 microM.
Cell Culture. All cells were maintained in an incubator at 37 degrees C and 5% CO2 with 95% humidity. The PDC lines were cultured according to standard operating procedures established by the NCI PDMR. Briefly, all PDCs were thawed and cultured in Matrigel-coated flasks prepared with a working solution of 1X Ham's F-12 nutrient mix, without supplementation (Invitrogen, Waltham, MA, cat. 11765054), 100 U/mL penicillin-streptomycin (Invitrogen, cat. 15140122), and 2.5% Matrigel (Corning Inc., Corning, NY, cat. 354248) for the first three passages. The 947758-054-R-J2-PDC line was cultured in 6B/Colon 1A media, which includes advanced DMEM/F-12 (Thermo Fisher Scientific, cat. 12634028), 10 mM HEPES (Thermo Fisher Scientific, cat. 15630080), 1X GlutaMAX supplement (Thermo Fisher Scientific, cat. 35050061), 0.1 mg/mL primocin (InvivoGen, cat. ant-pm-2), 10% defined fetal bovine serum, heat inactivated (HyClone Laboratories Inc., cat. SH30070.03HI), 1.25 mM N-Acetyl-L-cysteine (Sigma-Aldrich, cat. A9165), 10 mM nicotinamide (Sigma-Aldrich, cat. N0636), 1X B-27 supplement (Thermo Fisher Scientific, cat. 17504044), 1X N-2 supplement (Thermo Fisher Scientific, cat. 17502048), and 10 microM Y-27632 dihydrochloride (Tocris Bioscience, cat. 1254). The 876862-298-R-J1-PDC was cultured in 6E media, which includes all 6B/Colon 1A media components plus 50% L-WRN conditioned media (ATCC, cat. CRL-3276), 50 ng/mL recombinant human EGF recombinant protein (hEGF; Thermo Fisher Scientific, cat. PHG0311), 10 ng/mL recombinant human fibroblast growth factor 10 (hGFG-10; PeproTech, cat. 100-26), 1 ng/mL recombinant human fibroblast growth factor 2 (hFGF-2; PeproTech, cat. 100-18B), and 1 µM prostaglandin E2 (PGE2; Tocris, cat. 2296). The 227483-062-R1-J1-PDC line was cultured in Panc media, containing all 6E components except hFGF-2, with the addition of 500 nM SB-431542 (Selleckchem, cat. S1067) and 10 nM gastrin (Tocris, cat. 3006). […]

[1] = second compound 0.0316 µM, first compound 0.0316 µM
[2] = second compound 0.0316 µM, first compound 0.1 µM
[3] = second compound 0.0316 µM, first compound 0.316 µM
[4] = second compound 0.0316 µM, first compound 1 µM
[5] = second compound 0.0316 µM, first compound 3.16 µM
[6] = second compound 0.0316 µM, first compound 10 µM
[7] = second compound 0.1 µM, first compound 0.0316 µM
[8] = second compound 0.1 µM, first compound 0.1 µM
[9] = second compound 0.1 µM, first compound 0.316 µM
[10] = second compound 0.1 µM, first compound 1 µM
[11] = second compound 0.1 µM, first compound 3.16 µM
[12] = second compound 0.1 µM, first compound 10 µM
[13] = second compound 0.316 µM, first compound 0.0316 µM
[14] = second compound 0.316 µM, first compound 0.1 µM
[15] = second compound 0.316 µM, first compound 0.316 µM
[16] = second compound 0.316 µM, first compound 1 µM
[17] = second compound 0.316 µM, first compound 3.16 µM
[18] = second compound 0.316 µM, first compound 10 µM
[19] = second compound 1 µM, first compound 0.0316 µM
[20] = second compound 1 µM, first compound 0.1 µM
[21] = second compound 1 µM, first compound 0.316 µM
[22] = second compound 1 µM, first compound 1 µM
[23] = second compound 1 µM, first compound 3.16 µM
[24] = second compound 1 µM, first compound 10 µM
[25] = second compound 3.16 µM, first compound 0.0316 µM
[26] = second compound 3.16 µM, first compound 0.1 µM
[27] = second compound 3.16 µM, first compound 0.316 µM
[28] = second compound 3.16 µM, first compound 1 µM
[29] = second compound 3.16 µM, first compound 3.16 µM
[30] = second compound 3.16 µM, first compound 10 µM
[31] = second compound 10 µM, first compound 0.0316 µM
[32] = second compound 10 µM, first compound 0.1 µM
[33] = second compound 10 µM, first compound 0.316 µM
[34] = second compound 10 µM, first compound 1 µM
[35] = second compound 10 µM, first compound 3.16 µM
[36] = second compound 10 µM, first compound 10 µM
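Also: spheroids exposed to compounds for seven days before readout.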
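For viability, T/C in this document: 100% = DMSO vehicle control wells.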

SMILES: C#Cc1c(F)ccc2cc(O)cc(-c3ncc4c(N5CC6CCC(C5)N6)nc(OCC56CCCN5CC(F)C6)nc4c3F)c12 (stereo unspecified) + CN1CCN(c2cc(C(=O)Nc3cc4cc(-c5cnn(C)c5)ccc4cn3)ccn2)CC1
- IC50 (second compound 0.0316 µM): > 10 µM
- IC50 (second compound 0.1 µM): > 10 µM
- IC50 (second compound 0.316 µM): < 0.0316 µM
- IC50 (second compound 1 µM): < 0.0316 µM
- IC50 (second compound 3.16 µM): < 0.0316 µM
- IC50 (second compound 10 µM): < 0.0316 µM
- viability, T/C [1]: 132%
- viability, T/C [2]: 124%
- viability, T/C [3]: 125%
- viability, T/C [4]: 135%
- viability, T/C [5]: 117%
- viability, T/C [6]: 124%
- viability, T/C [7]: 133%
- viability, T/C [8]: 157%
- viability, T/C [9]: 136%
- viability, T/C [10]: 124%
- viability, T/C [11]: 125%
- viability, T/C [12]: 121%
- viability, T/C [13]: 17.1%
- viability, T/C [14]: 13.9%
- viability, T/C [15]: 16%
- viability, T/C [16]: 19.5%
- viability, T/C [17]: 17.8%
- viability, T/C [18]: 16.2%
- viability, T/C [19]: 1.68%
- viability, T/C [20]: 1.68%
- viability, T/C [21]: 2.02%
- viability, T/C [22]: 1.73%
- viability, T/C [23]: 1.51%
- viability, T/C [24]: 1.49%
- viability, T/C [25]: 1.98%
- viability, T/C [26]: 5.99%
- viability, T/C [27]: 2.15%
- viability, T/C [28]: 1.76%
- viability, T/C [29]: 1.24%
- viability, T/C [30]: 3.29%
- viability, T/C [31]: 1.05%
- viability, T/C [32]: 2.3%
- viability, T/C [33]: 0.88%
- viability, T/C [34]: 0.94%
- viability, T/C [35]: 1%
- viability, T/C [36]: 0.39%

SMILES: C=C(F)C(=O)N1CCN(c2nc(OCC3CCCN3C)nc3c2CCN(c2cccc4cccc(Cl)c24)C3)CC1CC#N (stereo unspecified) + CN1CCN(c2cc(C(=O)Nc3cc4cc(-c5cnn(C)c5)ccc4cn3)ccn2)CC1
- IC50 (second compound 0.0316 µM): 5.38 µM
- IC50 (second compound 0.1 µM): 5.53 µM
- IC50 (second compound 0.316 µM): < 0.0316 µM
- IC50 (second compound 1 µM): < 0.0316 µM
- IC50 (second compound 3.16 µM): < 0.0316 µM
- IC50 (second compound 10 µM): < 0.0316 µM
- viability, T/C [1]: 120%
- viability, T/C [2]: 116%
- viability, T/C [3]: 123%
- viability, T/C [4]: 122%
- viability, T/C [5]: 91.6%
- viability, T/C [6]: 1.53%
- viability, T/C [7]: 131%
- viability, T/C [8]: 123%
- viability, T/C [9]: 116%
- viability, T/C [10]: 135%
- viability, T/C [11]: 95.7%
- viability, T/C [12]: 1.5%
- viability, T/C [13]: 17.1%
- viability, T/C [14]: 20%
- viability, T/C [15]: 17.4%
- viability, T/C [16]: 18.9%
- viability, T/C [17]: 11.9%
- viability, T/C [18]: 0.14%
- viability, T/C [19]: 2.31%
- viability, T/C [20]: 2.11%
- viability, T/C [21]: 1.77%
- viability, T/C [22]: 1.1%
- viability, T/C [23]: 1.88%
- viability, T/C [24]: 0.11%
- viability, T/C [25]: 1.76%
- viability, T/C [26]: 3.04%
- viability, T/C [27]: 1.61%
- viability, T/C [28]: 2.21%
- viability, T/C [29]: 2.11%
- viability, T/C [30]: 0.17%
- viability, T/C [31]: 1.18%
- viability, T/C [32]: 1.1%
- viability, T/C [33]: 3.38%
- viability, T/C [34]: 0.85%
- viability, T/C [35]: 1.73%
- viability, T/C [36]: 3.8%

SMILES: CC(CO)NC(=O)c1cc(-c2ccc(Cl)cc2)nn(-c2cnn(C)c2)c1=O (stereo unspecified) + CN1CCN(c2cc(C(=O)Nc3cc4cc(-c5cnn(C)c5)ccc4cn3)ccn2)CC1
- IC50 (second compound 0.0316 µM): > 10 µM
- IC50 (second compound 0.1 µM): > 10 µM
- IC50 (second compound 0.316 µM): < 0.0316 µM
- IC50 (second compound 1 µM): < 0.0316 µM
- IC50 (second compound 3.16 µM): < 0.0316 µM
- IC50 (second compound 10 µM): < 0.0316 µM
- viability, T/C [1]: 129%
- viability, T/C [2]: 113%
- viability, T/C [3]: 128%
- viability, T/C [4]: 120%
- viability, T/C [5]: 115%
- viability, T/C [6]: 108%
- viability, T/C [7]: 130%
- viability, T/C [8]: 128%
- viability, T/C [9]: 135%
- viability, T/C [10]: 125%
- viability, T/C [11]: 135%
- viability, T/C [12]: 130%
- viability, T/C [13]: 21.2%
- viability, T/C [14]: 17%
- viability, T/C [15]: 17.9%
- viability, T/C [16]: 17.5%
- viability, T/C [17]: 18.3%
- viability, T/C [18]: 18.2%
- viability, T/C [19]: 2.7%
- viability, T/C [20]: 2.28%
- viability, T/C [21]: 1.94%
- viability, T/C [22]: 1.84%
- viability, T/C [23]: 2.34%
- viability, T/C [24]: 1.94%
- viability, T/C [25]: 2.22%
- viability, T/C [26]: 2.04%
- viability, T/C [27]: 1.99%
- viability, T/C [28]: 2.65%
- viability, T/C [29]: 2.74%
- viability, T/C [30]: 2.69%
- viability, T/C [31]: 1.3%
- viability, T/C [32]: 1.36%
- viability, T/C [33]: 2.02%
- viability, T/C [34]: 1.53%
- viability, T/C [35]: 3.43%
- viability, T/C [36]: 2.58%
